# Assay results published in US9556148B2, “N-cyanomethylamides as inhibitors of janus kinase” (CADILA HEALTHCARE LIMITED, priority 2013, dated 2017).
# pIC50: −log10 of the molar value.
# Assays:
# Format in all cases: biochemical
# [1] = biological target: recombinant purified human JAK1 (Homo sapiens (Human), UniProt P23458); assay: in vitro JAK kinase assay on ADP Glo platform, JAK1; settings: 50 μM ATP, 1 hr at room temperature
# Experimental: (§1) NCEs were screened using in vitro JAK (1, 2 and 3) kinase assay on ADP Glo platform (Promega). Fixed amount of recombinant purified human JAK (25 ng of JAK1 and 10 ng of JAK2 and JAK3 per reaction, from Life Technologies Ltd) were incubated with increasing concentration of NCEs in 1× kinase reaction buffer (40 mM Tris-Cl, pH7.5, 20 mM MgCl2, 0.1 mg/ml BSA and 50 μM DTT). Enzymatic reaction was initiated by adding a substrate cocktail containing 50 μM of ATP (final concentration) and 5 μg for JAK1 and 2.5 μg for JAK2 and JAK3 of polyGln4Tyr1 (Signal Chem) in total 25 μl of reaction in 96 well plate. The reaction was incubated at room temperature for 1 hr.
# (§2) After 1 hr of incubation equal volume (25 μl per reaction) of ADP Glo was added and incubated at room temperature for 40 min.
# (§3) This was followed by addition of kinase detection reagent (50 μl per reaction) and incubation at room temperature for 30 min. Finally, plate was read for luminescence at an integration time of 500 millisecond per well.
# (§4) Data were plotted taking Enzyme with no inhibitor set as the 100% kinase activity. IC50 values were calculated using Graph Pad Prism software.
# [2] = biological target: recombinant purified human JAK2 (Homo sapiens (Human), UniProt O60674); assay: in vitro JAK kinase assay on ADP Glo platform, JAK2; settings: 50 μM ATP, 1 hr at room temperature; read-out: JAK-2 IC50
# Experimental: as §1, §2, §3, §4
# [3] = biological target: recombinant purified human JAK3 (Homo sapiens (Human), UniProt P52333); assay: in vitro JAK kinase assay on ADP Glo platform, JAK3; settings: 50 μM ATP, 1 hr at room temperature; read-out: JAK-3 IC50
# Experimental: as §1, §2, §3, §4
# recombinant purified human JAK2, sequence (O60674 whole entry): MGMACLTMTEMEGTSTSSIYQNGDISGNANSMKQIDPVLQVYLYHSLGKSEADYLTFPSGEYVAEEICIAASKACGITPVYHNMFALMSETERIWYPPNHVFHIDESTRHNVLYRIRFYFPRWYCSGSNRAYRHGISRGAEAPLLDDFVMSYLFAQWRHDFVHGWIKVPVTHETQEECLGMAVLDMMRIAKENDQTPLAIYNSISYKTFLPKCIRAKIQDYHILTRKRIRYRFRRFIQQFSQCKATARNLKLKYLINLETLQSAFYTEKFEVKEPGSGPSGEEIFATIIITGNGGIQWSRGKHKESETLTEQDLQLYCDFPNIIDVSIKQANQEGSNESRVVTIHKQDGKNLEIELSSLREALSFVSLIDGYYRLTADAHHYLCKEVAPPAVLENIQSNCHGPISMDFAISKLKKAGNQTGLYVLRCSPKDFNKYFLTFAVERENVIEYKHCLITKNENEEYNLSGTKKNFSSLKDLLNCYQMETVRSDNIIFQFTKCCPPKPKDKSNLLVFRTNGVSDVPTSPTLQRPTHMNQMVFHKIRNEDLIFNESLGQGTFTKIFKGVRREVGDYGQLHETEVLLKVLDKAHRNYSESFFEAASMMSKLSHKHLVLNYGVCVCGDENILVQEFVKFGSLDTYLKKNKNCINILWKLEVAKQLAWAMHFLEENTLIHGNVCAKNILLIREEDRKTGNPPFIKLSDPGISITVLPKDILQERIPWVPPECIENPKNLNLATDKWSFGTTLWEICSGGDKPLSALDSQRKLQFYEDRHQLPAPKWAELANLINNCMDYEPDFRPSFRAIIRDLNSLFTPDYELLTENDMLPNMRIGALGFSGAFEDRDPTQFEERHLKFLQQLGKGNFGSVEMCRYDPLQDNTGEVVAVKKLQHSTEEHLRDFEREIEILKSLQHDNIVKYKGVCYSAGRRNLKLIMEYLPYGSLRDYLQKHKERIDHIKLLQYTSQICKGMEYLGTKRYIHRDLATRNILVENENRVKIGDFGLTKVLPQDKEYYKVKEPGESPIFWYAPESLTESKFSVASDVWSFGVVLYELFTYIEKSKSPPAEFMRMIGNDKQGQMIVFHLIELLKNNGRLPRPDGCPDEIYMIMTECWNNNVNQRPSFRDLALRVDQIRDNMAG
# recombinant purified human JAK3, sequence (P52333 whole entry): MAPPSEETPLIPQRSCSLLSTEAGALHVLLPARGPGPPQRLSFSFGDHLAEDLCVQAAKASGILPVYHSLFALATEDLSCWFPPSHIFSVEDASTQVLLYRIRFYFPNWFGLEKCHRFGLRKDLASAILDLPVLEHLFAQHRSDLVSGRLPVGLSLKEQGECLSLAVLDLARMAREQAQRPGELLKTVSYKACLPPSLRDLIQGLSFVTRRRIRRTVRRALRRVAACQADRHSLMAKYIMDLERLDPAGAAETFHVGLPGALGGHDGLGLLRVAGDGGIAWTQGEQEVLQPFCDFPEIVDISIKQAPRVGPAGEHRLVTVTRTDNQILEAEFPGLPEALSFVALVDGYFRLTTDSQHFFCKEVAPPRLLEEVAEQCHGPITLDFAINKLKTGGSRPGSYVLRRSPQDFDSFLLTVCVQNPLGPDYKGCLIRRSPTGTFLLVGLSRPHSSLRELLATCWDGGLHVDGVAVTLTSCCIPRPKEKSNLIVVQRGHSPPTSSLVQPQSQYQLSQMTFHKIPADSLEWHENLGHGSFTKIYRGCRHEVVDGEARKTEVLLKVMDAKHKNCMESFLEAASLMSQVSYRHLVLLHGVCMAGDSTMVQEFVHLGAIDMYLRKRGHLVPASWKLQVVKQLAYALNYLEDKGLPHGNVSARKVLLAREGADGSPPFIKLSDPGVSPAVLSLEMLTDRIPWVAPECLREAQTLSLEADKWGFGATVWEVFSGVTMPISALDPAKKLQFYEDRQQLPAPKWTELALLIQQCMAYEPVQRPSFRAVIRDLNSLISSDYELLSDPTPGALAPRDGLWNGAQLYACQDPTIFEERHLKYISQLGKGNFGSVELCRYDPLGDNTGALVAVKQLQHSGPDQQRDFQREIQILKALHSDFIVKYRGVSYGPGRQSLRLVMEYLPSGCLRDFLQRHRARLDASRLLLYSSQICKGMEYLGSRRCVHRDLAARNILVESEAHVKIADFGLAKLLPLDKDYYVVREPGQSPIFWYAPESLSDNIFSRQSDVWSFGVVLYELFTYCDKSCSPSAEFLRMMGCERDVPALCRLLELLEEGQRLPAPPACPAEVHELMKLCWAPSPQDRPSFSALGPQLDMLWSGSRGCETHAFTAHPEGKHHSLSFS
# recombinant purified human JAK1, sequence (P23458 whole entry): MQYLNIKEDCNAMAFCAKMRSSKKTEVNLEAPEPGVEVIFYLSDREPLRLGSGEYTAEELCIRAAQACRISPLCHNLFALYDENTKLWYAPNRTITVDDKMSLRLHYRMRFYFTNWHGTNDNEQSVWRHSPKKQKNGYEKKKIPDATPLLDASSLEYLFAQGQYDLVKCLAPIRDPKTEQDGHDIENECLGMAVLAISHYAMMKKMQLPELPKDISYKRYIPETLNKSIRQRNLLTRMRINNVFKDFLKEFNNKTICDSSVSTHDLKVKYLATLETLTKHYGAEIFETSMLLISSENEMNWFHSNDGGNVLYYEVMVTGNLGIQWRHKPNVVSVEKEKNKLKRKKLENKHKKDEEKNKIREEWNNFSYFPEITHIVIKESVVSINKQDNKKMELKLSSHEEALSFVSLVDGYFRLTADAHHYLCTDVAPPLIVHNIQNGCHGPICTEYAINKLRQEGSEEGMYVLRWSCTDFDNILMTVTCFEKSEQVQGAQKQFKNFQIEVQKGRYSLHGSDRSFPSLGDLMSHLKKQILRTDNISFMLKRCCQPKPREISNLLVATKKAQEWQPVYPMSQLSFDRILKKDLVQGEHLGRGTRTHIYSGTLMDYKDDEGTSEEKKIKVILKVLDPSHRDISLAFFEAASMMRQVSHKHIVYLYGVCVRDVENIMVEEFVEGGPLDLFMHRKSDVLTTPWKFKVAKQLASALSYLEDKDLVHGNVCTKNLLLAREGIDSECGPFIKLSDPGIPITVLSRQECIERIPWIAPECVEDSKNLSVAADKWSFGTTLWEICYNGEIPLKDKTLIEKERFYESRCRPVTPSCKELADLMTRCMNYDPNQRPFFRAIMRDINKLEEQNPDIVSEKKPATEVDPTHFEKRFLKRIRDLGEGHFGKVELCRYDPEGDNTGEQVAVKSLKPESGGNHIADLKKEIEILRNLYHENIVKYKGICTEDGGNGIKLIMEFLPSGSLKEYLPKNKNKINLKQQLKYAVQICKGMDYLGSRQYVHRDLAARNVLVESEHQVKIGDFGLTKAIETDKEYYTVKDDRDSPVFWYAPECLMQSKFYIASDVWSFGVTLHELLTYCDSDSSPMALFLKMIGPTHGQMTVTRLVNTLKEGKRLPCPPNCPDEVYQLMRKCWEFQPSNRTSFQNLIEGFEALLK
SMILES,pIC50 [1],pIC50 [2],pIC50 [3]
"Cc1cnc(Nc2ccc(N3CCC(N4CCC5(CCCO5)CC4)CC3)cc2)nc1-c1ccc(C(=O)NCC#N)cc1 [Example 42, 4-(2-((4-(4-(1-oxa-8-azaspiro[4.5]decan-8-yl)piperidin-1-yl)phenyl)amino)-5-methylpyrimidin-4-yl)-N-(cyanomethyl)benzamide]",8.60,8.37,7.23
"CC(=O)N1C2CC1CN(C1CCN(c3ccc(Nc4nccc(-c5ccc(C(=O)NCC#N)cc5)n4)cc3)CC1)C2 [Example 39, 4-(2-((4-(4-(6-acetyl-3,6-diazabicyclo[3.1.1]heptan-3-yl)piperidin-1-yl)phenyl)amino)pyrimidin-4-yl)-N-(cyanomethyl)benzamide]",8.06,–,7.29
"N#CCNC(=O)c1ccc(-c2ccnc(Nc3ccc(N4CCC(N5CC6OCCOC6C5)CC4)cc3)n2)cc1 (stereo not drawn) [Example 27, N-(cyanomethyl)-4-(2-((4-(4-(tetrahydro-2H-[1,4]dioxino[2,3-c]pyrrol-6(3H)-yl)piperidin-1-yl)phenyl)amino)pyrimidin-4-yl)benzamide]",8.00,8.30,7.31
"N#CCNC(=O)c1ccc(-c2ccnc(Nc3ccc(N4CCC(N5CCC6(CCC(=O)O6)CC5)CC4)cc3)n2)cc1 [Example 28, N-(cyanomethyl)-4-(2-((4-(4-(2-oxo-1-oxa-8-azaspiro[4.5]decan-8-yl)piperidin-1-yl)phenyl)amino)pyrimidin-4-yl)benzamide]",7.96,8.22,7.26
"N#CCNC(=O)c1ccc(-c2ccnc(Nc3ccc(N4CCC(N5CCOC5=O)CC4)cc3)n2)cc1 [Example 12, N-(cyanomethyl)-4-(2-((4-(4-(2-oxooxazolidin-3-yl)piperidin-1-yl)phenyl)amino)pyrimidin-4-yl)benzamide]",7.60,–,7.11
"N#CCNC(=O)c1ccc(-c2ccnc(Nc3ccc(N4CCN(C5CCS(=O)(=O)CC5)CC4)cc3)n2)cc1 [Example 7, N-(cyanomethyl)-4-(2-((4-(4-(1,1-dioxidotetrahydro-2H-thiopyran-4-yl)piperazin-1-yl)phenyl)amino)pyrimidin-4-yl)benzamide]",7.85,7.92,7.21
"Cc1nnc(C2CCN(c3ccc(Nc4ncc(C)c(-c5ccc(C(=O)NCC#N)cc5)n4)cc3)CC2)o1 [Example 43, N-(cyanomethyl)-4-(5-methyl-2-((4-(4-(5-methyl-1,3,4-oxadiazol-2-yl)piperidin-1-yl)phenyl)amino)pyrimidin-4-yl)benzamide]",8.92,8.59,7.28
"N#CCNC(=O)c1ccc(-c2ccnc(Nc3ccc(N4CCN(C5CCOCC5)CC4)cc3)n2)cc1 [Example 15, N-(cyanomethyl)-4-(2-((4-(4-(tetrahydro-2H-pyran-4-yl)piperazin-1-yl)phenyl)amino)pyrimidin-4-yl)benzamide]",7.80,7.96,7.06
"N#CCNC(=O)c1ccc(-c2ccnc(Nc3ccc(N4CCC(N5CC6OCCOC6C5)C4)cc3)n2)cc1 (stereo not drawn) [Example 35, N-(cyanomethyl)-4-(2-((4-(3-(tetrahydro-2H-[1,4]dioxino[2,3-c]pyrrol-6(3H)-yl)pyrrolidin-1-yl)phenyl)amino)pyrimidin-4-yl)benzamide]",7.82,7.68,6.86
"N#CCNC(=O)c1ccc(-c2ccnc(Nc3ccc(N4CCN(C5=NCCN5)CC4)cc3)n2)cc1 [Example 33, N-(cyanomethyl)-4-(2-((4-(4-(4,5-dihydro-1H-imidazol-2-yl)piperazin-1-yl)phenyl)amino)pyrimidin-4-yl)benzamide]",7.70,7.96,7.27
"N#CCNC(=O)c1ccc(-c2ccnc(Nc3ccc(N4CCC(N5CCCC5)C4)cc3)n2)cc1 (stereo not drawn) [Example 6, 4-(2-((4-([1,3′-Bipyrrolidin]-1′-yl)phenyl)amino)pyrimidin-4-yl)-N-(cyanomethyl)benzamide]",7.80,7.72,6.81
"N#CCNC(=O)c1ccc(-c2ccnc(Nc3ccc(N4CCN(C5CCS(=O)(=O)C5)CC4)cc3)n2)cc1 (stereo not drawn) [Example 9, N-(cyanomethyl)-4-(2-((4-(4-(1,1-dioxidotetrahydrothiophen-3-yl)piperazin-1-yl)phenyl)amino)pyrimidin-4-yl)benzamide]",7.85,8.10,7.40
"N#CCNC(=O)c1ccc(-c2ccnc(Nc3ccc(N4CCC(c5nnco5)CC4)cc3)n2)cc1 [Example 19, 4-(2-((4-(4-(1,3,4-oxadiazol-2-yl)piperidin-1-yl)phenyl)amino)pyrimidin-4-yl)-N-(cyanomethyl)benzamide]",8.00,8.15,7.40
"Cc1nnc(N2CCN(c3ccc(Nc4nccc(-c5ccc(C(=O)NCC#N)cc5)n4)cc3)CC2)o1 [Example 36, N-(cyanomethyl)-4-(2-((4-(4-(5-methyl-1,3,4-oxadiazol-2-yl)piperazin-1-yl)phenyl)amino)pyrimidin-4-yl)benzamide]",8.04,–,7.33
"Cc1cnc(Nc2ccc(N3CCC(N4CCCC4=O)CC3)cc2)nc1-c1ccc(C(=O)NCC#N)cc1 [Example 41, N-(cyanomethyl)-4-(5-methyl-2-((4-(4-(2-oxopyrrolidin-1-yl)piperidin-1-yl)phenyl)amino)pyrimidin-4-yl)benzamide]",9.22,8.60,7.97
"Cc1cnc(Nc2ccc(N3CCC(N4CCOCC4)CC3)cc2)nc1-c1ccc(C(=O)NCC#N)cc1 [Example 40, N-(cyanomethyl)-4-(5-methyl-2-((4-(4-morpholinopiperidin-1-yl)phenyl)amino)pyrimidin-4-yl)benzamide]",8.89,8.55,7.49
"N#CCNC(=O)c1ccc(-c2ccnc(Nc3ccc(N4CCC(N5CCCS5(=O)=O)CC4)cc3)n2)cc1 [Example 2, N-(cyanomethyl)-4-(2-((4-(4-(1,1-dioxidoisothiazolidin-2-yl)piperidin-1-yl)phenyl)amino)pyrimidin-4-yl)benzamide]",8.29,8.40,7.29
"N#CCNC(=O)c1ccc(-c2ccnc(Nc3ccc(N4CCC(N5CCNC5=O)CC4)cc3)n2)cc1 [Example 18, N-(cyanomethyl)-4-(2-((4-(4-(2-oxoimidazolidin-1-yl)piperidin-1-yl)phenyl)amino)pyrimidin-4-yl)benzamide]",8.05,7.96,7.30
"COc1nnc(C2CCN(c3ccc(Nc4nccc(-c5ccc(C(=O)NCC#N)cc5)n4)cc3)CC2)o1 [Example 31, N-(cyanomethyl)-4-(2-((4-(4-(5-methoxy-1,3,4-oxadiazol-2-yl)piperidin-1-yl)phenyl)amino)pyrimidin-4-yl)benzamide]",7.70,7.77,7.13
